Test results from paper PMC8145938, “Triphenilphosphonium Analogs of Chloramphenicol as Dual-Acting Antimicrobial and Antiproliferating Agents” (Antibiotics, 2021).
In brackets after ≈: the same amount, converted by molar mass. Like-named read-outs stand apart in the source and are kept apart here.

Legend:
[1] = system: ribosome stalling on trpL mRNA in a cell-free translation system; test: toeprinting (primer extension inhibition) assay on trpL mRNA; format: biochemical; settings: trpL mRNA template, 30 μM compound
Excerpt: To investigate the mechanism of action of CAM-C10-TPP and CAM-C14-TPP in the translation process, a primer extension inhibition assay (toeprinting) was used. This method allows for the unambiguous identification of drug-induced ribosome stalling sites along the mRNA, with single-nucleotide precision. This technique is also used to determine the context-specificity of antibiotic action. For this experiment, trpL mRNAs were chosen as the template, as in the pDualrep2 reporter system. […] Compared to the results obtained previously for CAM-C4-TPP using rst1 and rst2 mRNA templates, more unambiguous results were obtained using a trpL mRNA template. The main drug-induced ribosome stalling sites are different for CHL and CAM-Cn-TPP, and there are also CAM-Cn-TPP-specific stalling positions.
The toeprinting assay was carried out using trpL mRNA as a template, as described in [73], and the reactions were preincubated for 5 min with 30 μM of the tested compound.

A549 = test: MTT assay growth inhibition; format: cell-based, human; settings: for selectivity of action for A549 and noncancerous VA13 cell lines: A549 vs VA13; for GI50: Homo sapiens, A549, MTT, 72 h, read-out: 50% growth inhibition concentration (GI50)
Description: (§1) The cytotoxicity of the tested substances was tested using the MTT (3-(4,5-dimethylthiazol-2-yl)-2,5-diphenyltetrazolium bromide) assay, with some modifications, and 2500 cells per well for the MCF7, HEK293T, and A549 cell lines or 4000 cells per well for the VA-13 cell line were plated in 135 µL of DMEM-F12 media (Gibco, Waltham, MA, USA) in a 96-well plate and incubated in the 5% CO2 incubator for first 16 h, without treatment. Then, 15 µL of media-DMSO solutions of the tested substances was added to the cells (the final DMSO concentrations in the media were 1% or less) and treated cells for 72 h with 25 nM–50 µM (eight dilutions) of our substances (triplicate each), and serial DMSO dilutions and doxorubicin were used as controls. The MTT reagent (Paneco LLC, Moscow, Russia) was then added to cells to a final concentration of 0.5 g/L (10× stock solution in PBS was used) and incubated for 2.5 h at 37 °C in the incubator under an atmosphere of 5% CO2. The MTT solution was then discarded, and 140 µL of DMSO (PharmaMed LLC, Krasnodarsky Krai, Russia) was added. The plates were swayed on a shaker (60 rpm) to dissolve the formazan. The absorbance was measured using a microplate reader (VICTOR X5 Light Plate Reader, PerkinElmer, Waltham, MA, USA) at a wavelength of 565 nm (in order to measure formazan concentration). The results were used to construct a dose-response graph and to estimate the CC50 value.

E. coli ∆tolC = test: MIC determination, broth microdilution; format: cell-based; settings: Escherichia coli
Description: (§2) E. coli ∆tolC CHL-resistant strain harboring plasmid encoding for chloramphenicol acetyltransferase (cat) (pCA24N-LacZ) and the control E. coli ∆tolC strain was used to evaluate the inhibitory effect of the compounds. CHL-resistant strains of B. subtilis pHT01-cat and B. subtilis pHT01-cfr were prepared by means of a transformation of a B. subtilis 168 strain with plasmids harboring the cat and cfr genes (chloramphenicol-florfenicol resistance) gene. The cfr gene encodes for the methyltransferase, which catalyzes the methylation of […] in the 23S rRNA and causes resistance to a variety of ribosome-targeting antibiotics that bind in the A site of the bacterial ribosome.
(§3) A standard laboratory strain of E. coli JW5503, with the deletion of the tolC gene, referred to here as the ∆tolC strain, was used to obtain the ∆tolC pCA24N-LacZ strain by means of transformation with the plasmid pCA24N-LacZ-harboring chloramphenicol acetyltransferase (cat) gene.
(§4) The MICs for CAM-Cn-TPP and Cn-TPP were determined by Mueller-Hinton broth microdilution, as recommended by CLSI in the Methods for Dilution Antimicrobial Susceptibility Tests for Bacteria that Grow Aerobically, Approved Standard, 9th ed., CLSI document M07-A9, using in-house-prepared panels. The compounds were diluted in a 96-well microtiter plate to final concentrations ranging from 0.5 to 360 μM in a 250-µL aliquot of the bacterial suspension, followed by incubation at 37 °C or 30 °C for 18 h. […] The bacterial growth was observed visually alongside OD measurements. The experiments were carried out in triplicate.

E. coli ∆tolC-CAT = test: MIC determination, broth microdilution; format: cell-based; settings: Escherichia coli
Description: as §2, §3, §4

MCF7 = test: MTT assay growth inhibition; format: cell-based; settings: Homo sapiens, 72 h, read-out: 50% growth inhibition concentration (GI50)
Description: as §1

VA13 = test: MTT assay growth inhibition; format: cell-based; settings: VA-13, 72 h, read-out: 50% growth inhibition concentration (GI50)
Description: as §1

HEK293T = test: MTT assay growth inhibition; format: cell-based; settings: Homo sapiens, HEK-293T, 72 h, read-out: 50% growth inhibition concentration (GI50)
Description: as §1

Listeria monocytogenes = test: MIC determination, broth microdilution; format: cell-based
Excerpt: (§5) Standard laboratory strains of Bacillus subtilis subs. subtilis Cohn 1872, stains BR151, and 168, Staphylococcus aureus subsp. aureus Rosenbach 1884 strains JCM 2151 and entry MC#144 (from the Microorganisms Collection of the Moscow State University), Listeria monocytogenes Pirie 1940, Mycobacterium smegmatis Lehmann and Neumann 1899 (MC#377), and Escherichia coli Castellani and Chalmers 1919, strain JW5503 (with the deletion of tolC gene), which are resistant to the chloramphenicol strains, J53rif, C600rif/pIB55-1, C600rif/pIP162-1, and C600recA naI, were used.
(§6) S. aureus was grown in Bacto Tryptic Soy Broth, L. monocytogenes in Brain Heart Infusion Broth, and E. coli in LB. Bacterial cells were grown at 30 °C or 37 °C in the appropriate medium at a 140 rpm shaking frequency.
as §4

Staphylococcus aureus = test: MIC determination, broth microdilution; format: cell-based
Excerpt: as §5, §6, §4

[2] = Table 1, double-dilution method, read-out: MIC

SMILES	drug-induced ribosome stalling site [1]	selectivity of action for A549 and noncancerous VA13 cell lines (A549)	GI50 (A549)	MIC (E. coli ∆tolC)	MIC (E. coli ∆tolC-CAT)	GI50 (MCF7)	GI50 (VA13)	GI50 (HEK293T)	MIC (Listeria monocytogenes)	MIC (Staphylococcus aureus)	MIC (Listeria monocytogenes; [2])	MIC (Staphylococcus aureus; [2])
O=C(CCCCCCCCCC[P+](c1ccccc1)(c1ccccc1)c1ccccc1)N[C@H](CO)[C@H](O)c1ccc([N+](=O)[O-])cc1 [CAM-C10-TPP, (N-{[(1R,2R)-1,3-dihydroxy-1-(4-nitrophenyl)propan-2-yl]amino}-11-oxoundecyl)(triphenyl)phosphonium bromide]	blocked the ribosome progression at Val6 (Figure 2D, red arrowhead) and slightly blocked it at Ile4	approximately 4 times	0.7 ± 0.1 µM	3 µM	25 µM	1 ± 0.1 µM	2.8 ± 0.5 µM	0.62 ± 0.04 µM	6 µM	5 µM	–	–
O=C(CCCCCCCCCC[P+](c1ccccc1)(c1ccccc1)c1ccccc1)NCCCC(=O)N[C@H](CO)[C@H](O)c1ccc([N+](=O)[O-])cc1 [CAM-C14-TPP, N-[(1R,2R)-1,3-dihydroxy-1-(4-nitrophenyl)propan-2-yl]-4-(triphenyl)phosphoniumundecanamidobutamide bromide]	blocked the ribosome progression at Val6 (Figure 2D, red arrowhead) and slightly blocked it at Ile4	~2 times	2.9 ± 0.4 µM	12.5 µM	12.5 µM	5.8 ± 0.8 µM	5.2 ± 0.9 µM	3.6 ± 0.5 µM	17 µM	12 µM	–	–
O=C(N[C@H](CO)[C@H](O)c1ccc([N+](=O)[O-])cc1)C(Cl)Cl [CHL, chloramphenicol]	stalls ribosomes at the Ile4 codon	–	> 50 µM	2.8 µM (≈ 0.905 µg/mL)	> 360 µM	> 50 µM	> 50 µM	> 50 µM	–	–	25 µM (≈ 8.08 µg/mL)	60 µM (≈ 19.4 µg/mL)
